Columns and labels:
Type in all cases: biochemical
PRK-2 [1] = molecular target: T1, PRK-2 (Caenorhabditis elegans, UniProt Q20443); assay: radioactive in vitro kinase assay, autoradiography; details: labelled compound; autophosphorylation and GST-NFATC1 (1-418) as acceptor
T1 construct: full-length, GST fusion in pGEX-6P-2, expressed in bacteria
T1 sequence (Q20443 1-441): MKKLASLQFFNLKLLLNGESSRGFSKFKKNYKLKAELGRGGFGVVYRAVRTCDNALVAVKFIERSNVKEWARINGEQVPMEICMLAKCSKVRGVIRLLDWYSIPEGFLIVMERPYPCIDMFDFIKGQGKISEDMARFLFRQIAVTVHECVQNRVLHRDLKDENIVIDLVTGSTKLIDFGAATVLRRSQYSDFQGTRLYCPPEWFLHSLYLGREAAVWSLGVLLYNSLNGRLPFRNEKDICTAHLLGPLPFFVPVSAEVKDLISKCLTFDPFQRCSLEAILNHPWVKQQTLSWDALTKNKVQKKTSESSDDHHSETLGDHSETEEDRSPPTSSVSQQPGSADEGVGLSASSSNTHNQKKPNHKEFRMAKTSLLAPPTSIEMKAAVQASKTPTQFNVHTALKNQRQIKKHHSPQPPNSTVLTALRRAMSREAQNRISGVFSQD

PIM-1 [2] = molecular target: T2, PIM-1 (Homo sapiens, UniProt P11309); assay: radioactive in vitro kinase assay, autoradiography; details: labelled compound; autophosphorylation and GST-NFATC1 (1-418) as acceptor
T2 construct: gene PIM1; full-length short isoform (313 residues, recalled), GST fusion expressed in bacteria

PIM-1 [3] = molecular target: T2, PIM-1; assay: radioactive in vitro kinase assay (autophosphorylation and NFATC1 […]-418 phosphorylation); details: 10 µM inhibitor, 10-20 min pre-incubation, gamma-32P-ATP, 0.1% DMSO control
PRK-2 [4] = molecular target: T1, PRK-2; assay: as above; details: 10 µM inhibitor, 10-20 min pre-incubation, gamma-32P-ATP, 0.1% DMSO control

T2 sequence (P11309 whole entry, the tested form may be a part, canonical isoform): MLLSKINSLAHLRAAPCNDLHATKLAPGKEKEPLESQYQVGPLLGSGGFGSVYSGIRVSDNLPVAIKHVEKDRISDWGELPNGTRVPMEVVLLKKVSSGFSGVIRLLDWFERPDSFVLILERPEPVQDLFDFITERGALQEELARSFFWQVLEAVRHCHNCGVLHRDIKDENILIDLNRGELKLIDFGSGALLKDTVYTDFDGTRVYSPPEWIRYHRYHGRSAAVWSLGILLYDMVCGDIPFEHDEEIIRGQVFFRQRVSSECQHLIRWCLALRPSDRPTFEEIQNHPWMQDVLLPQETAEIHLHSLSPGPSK

Structure (SMILES)	radioactive in vitro kinase assay, autoradiography (PRK-2 [1])	radioactive in vitro kinase assay, autoradiography (PIM-1 [2])	relative phosphorylation at 10 μM (PIM-1 [3])	relative phosphorylation at 10 μM (PRK-2 [4])
Nc1ncnc2c1ncn2[C@@H]1O[C@H](COP(=O)(O)OP(=O)(O)OP(=O)(O)O)[C@@H](O)[C@H]1O [γ-32P-ATP]	both PIM-1 and PRK-2 were able to autophosphorylate themselves	both PIM-1 and PRK-2 were able to autophosphorylate themselves	–	–
O=Cc1c[nH]c2c1ccc1c3ccccc3[nH]c12 [DHPCC-9]	–	–	DHPCC-9 was able to inhibit autophosphorylation of not only PIM-1, but also PRK-2	DHPCC-9 was able to inhibit autophosphorylation of not only PIM-1, but also PRK-2
